{
  "source": "patent US7125903B1",
  "about": "(Aventis Pharmaceuticals Inc., priority 1999, dated 2006)",
  "note": "Where a name gives a salt, the structure may show the parent alone.",
  "data": [
    {"system": "not given", "assay": "not given", "settings": "not given", "units": {"melting point": "°C"}, "values": [
      {"smiles": "O[C@@H](COc1cccc(-c2noc3ccsc23)c1)CN1CCN(Cc2ccc3c(c2)OCO3)CC1", "note": "(as salt: hydrochloride) [Example 51, (2R)-1-(4-benzo[1,3]dioxol-5-ylmethyl-piperazin-1-yl)-3-(3-thieno[2,3-d]isoxazol-3-yl-phenoxy)propan-2-ol]", "melting point": "225 to 227"},
      {"smiles": "O[C@@H](COc1cccc(-c2noc3ccsc23)c1)CN1CCN(c2n[nH]c3cc(F)ccc23)CC1", "note": "[Example 11, (2R)-1-[4-(6-fluoro-1H-indazol-3-yl)-piperazin-1-yl]-3-(3-thieno[2,3-d]isoxazol-3-yl-phenoxy)-propan-2-ol]", "melting point": "97 to 99"},
      {"smiles": "COc1ccc2[nH]nc(N3CCN(C[C@@H](O)COc4cccc(-c5noc6ccsc56)c4)CC3)c2c1", "note": "[Example 12, (2R)-1-[4-(5-methoxy-1H-indazol-3-yl)-piperazin-1-yl]-3-(3-thieno[2,3-d]isoxazol-3-yl-phenoxy)-propan-2-ol]", "melting point": "84 to 86"},
      {"smiles": "C[C@@](O)(CNCc1cccs1)COc1cccc(-c2noc3ccsc23)c1.O=C(O)/C=C\\C(=O)O", "note": "[Example 27]", "melting point": "120 to 121"},
      {"smiles": "O[C@@H](COc1cccc(-c2noc3ccsc23)c1)CN1CCN(c2ccccc2F)CC1", "note": "[Example 44, (2R)-1-[4-(2-fluorophenyl)piperazin-1-yl]-3-(3-thieno[2,3-d]isoxazol-3-yl-phenoxy)-propan-2-ol]", "melting point": "96 to 99"}
    ]},
    {"target": "T1, human D4 receptor (D4.2 sub-type) (Homo sapiens, UniProt P21917, DEL265-296)", "T1 construct": "expressed in transfected cells", "T1 sequence (P21917 with tags, fused parts or gaps DEL265-296)": "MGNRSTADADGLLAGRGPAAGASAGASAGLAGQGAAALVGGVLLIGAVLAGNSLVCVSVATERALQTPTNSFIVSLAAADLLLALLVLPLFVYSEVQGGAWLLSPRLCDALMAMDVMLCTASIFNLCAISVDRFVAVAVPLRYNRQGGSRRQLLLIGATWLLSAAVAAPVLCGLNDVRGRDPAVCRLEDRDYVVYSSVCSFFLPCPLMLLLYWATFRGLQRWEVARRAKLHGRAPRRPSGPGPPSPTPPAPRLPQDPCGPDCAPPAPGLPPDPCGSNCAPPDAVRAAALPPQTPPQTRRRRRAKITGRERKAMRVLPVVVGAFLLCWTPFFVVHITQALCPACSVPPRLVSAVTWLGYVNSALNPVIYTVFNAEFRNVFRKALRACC", "assay": "D4 receptor binding assay (3H-spiperone displacement)", "settings": "1 μM test compound, inhibition of 3H-spiperone binding; read-out: D4 RBA % Inhib. @ 1 μM", "method": "(§1) D4 receptor-binding affinities of the compounds were evaluated according to their ability to reduce binding of ^3H-spiperone as compared to the reference compound clozapine. The potency of the test compound to reduce ^3H-spiperone binding directly correlated to its binding affinity for the receptor.\n(§2) […] (human embryonic kidney) cells stably transfected with human D4 receptor (D4.2 sub-type) were grown in NUNC cell factories for 5 days (75% confluency) without a media change and removed with versene (approximately 19 mg of cells per cell factory tray). The cells were then centrifuged in a Sorval centrifuge for 10 min, 5000 rpm (GS3 rotor) and the pellets quickly frozen in liquid nitrogen and stored at −80° C. until used in binding assay. When used in the assay, cells were thawed on ice for 20 min and then 10 mL of incubation buffer (50 mM Tris, 1 mM EDTA, 4 mM MgCl2, 5 mM KCl, 1.5 mM CaCl2, 120 mM NaCl, pH 7.4) was added. The cells were then vortexed to resuspend pellet and homogenized with a Kinematica, CH-6010 Kriens-LU, homogenizer for 15 seconds at setting 7. Concentration of receptor protein was determined using the Pierce BCA assay.\n(§3) The incubation was started by the addition of 100 μl (50 μg protein) membrane homogenate to a solution of 300 μl incubation buffer and 100 μl (0.25 nM final conc.) ^3H-spiperone (90 Ci/mmol, Amersham, diluted in borosilicate glass vial) in 96-well polypropylene plates (1 mL per well). The plates were vortexed and incubated at room temperature for 90 minutes. The binding reaction was stopped by filtering using a Packard Harvester. The samples were filtered under vacuum over glass fibre filter plates (Whatman GF/B) presoaked for 2 hours in 0.3% polyethylenimine (PEI) in 50 mM Tris buffer (pH 7.4). The filters were then washed 6 times with 7 mL ice cold 50 mM Tris buffer (pH 7.4). The filter plates were dried overnight and 35 μl of Microscint-O (Packard) was added. The plates were sealed and counted in the Packard Top Count (3 minutes per well).\n(§4) The incubation was started by the addition of 100 μl (50 μg protein) membrane homogenate to a solution of 200 μl incubation buffer, 100 μl ^3H-spiperone (90 Ci/mmol, Amersham, diluted in borosilicate glass vial to 0.25 nM final conc.) and 100 μl (30 μM final conc.) of fresh dopamine (Research Biochemicals Inc., light protected and dissolved in incubation buffer) in 96-well polypropylene plates (1 mL per well). The plates were vortexed and incubated at room temperature for 90 minutes at which time the binding reaction was stopped by filtering. The filters were washed and counted using the same procedure as in the total binding assay described above to give the nonspecific binding value (NSB).\n(§5) The incubation was started by the addition, in 96-well polypropylene plates (1 mL per well), of 100 μl (50 μg protein) membrane homogenate to a solution of 200 μl incubation buffer, 100 μl (0.25 nM final conc.) ^3H-spiperone (90 Ci/mmol, Amersham, diluted in borosilicate glass vial) and 100 μl of test compound that was prepared from 1 mM stock dissolved in DMSO and stored at −20° C. in polypropylene cryogenic storage vials until dilution in incubation buffer in 96-well polypropylene plates. The plates were vortexed and incubated at room temperature for 90 minutes at which time the binding reaction was stopped by filtering. The filters were washed and counted using the same procedure as in the total binding assay described above to give the displacement binding value (BD).\n(§6) The test compounds were initially assayed at 1 and 0.1 μM and then at a range of concentrations chosen such that the middle dose would cause about 50% inhibition of ^3H-spiperone binding. Specific binding in the absence of test compound (B0) was the difference of total binding (BT) minus non-specific binding (NSB) and similarly specific binding (in the presence of test compound) (B) was the difference of displacement binding (BD) minus non-specific binding (NSB). […]", "units": {"inhibition at 1 µM": "%"}, "values": [
      {"smiles": "OC(COc1cccc(-c2noc3ccsc23)c1)CN1CCc2ccccc2C1", "note": "(racemic) [Compound 1, (±)-1-(3,4-dihydro-1H-isoquinolin-2-yl)-3-[3-(thieno[2,3-d]isoxazol-3-yl)phenoxy]-2-propanol hydrochloride]", "inhibition at 1 µM": 58},
      {"smiles": "O[C@@H](COc1cccc(-c2noc3ccsc23)c1)CN1CCN(Cc2ccc3c(c2)OCO3)CC1", "note": "[Example 35]", "inhibition at 1 µM": 57},
      {"smiles": "O[C@H](CNCc1ccsc1)COc1ccc(-c2noc3ccsc23)cc1", "note": "[Example 41]", "inhibition at 1 µM": 62},
      {"smiles": "O[C@H](CNCc1ccco1)COc1ccc(-c2noc3ccsc23)cc1", "note": "[Example 42]", "inhibition at 1 µM": 44},
      {"smiles": "C[C@@H](NC[C@](C)(O)COc1cccc(-c2noc3ccsc23)c1)c1ccccc1", "note": "[Example 55]", "inhibition at 1 µM": 72},
      {"smiles": "C[C@H](NC[C@](C)(O)COc1cccc(-c2noc3ccsc23)c1)c1ccccc1", "note": "[Example 56]", "inhibition at 1 µM": 93},
      {"smiles": "C[C@](O)(CNCc1cccc2ccccc12)COc1cccc(-c2noc3ccsc23)c1", "note": "[Example 57]", "inhibition at 1 µM": 96},
      {"smiles": "O[C@@H](COc1cccc(-c2noc3ccsc23)c1)CN1CCC(O)(c2ccc(Cl)cc2)CC1", "note": "[Example 90]", "inhibition at 1 µM": 59},
      {"smiles": "O[C@H](CNCC1CCCCC1)COc1cccc(-c2noc3ccsc23)c1", "note": "[Example 92]", "inhibition at 1 µM": 94},
      {"smiles": "O[C@@H](COc1cccc(-c2noc3ccsc23)c1)CN1CCCCC1", "note": "[Example 98]", "inhibition at 1 µM": 85},
      {"smiles": "Cn1nc(-c2cccc(OC[C@H](O)CN3CCc4ccccc4C3)c2)c2sccc21", "note": "[Example 99]", "inhibition at 1 µM": 95},
      {"smiles": "Cn1nc(-c2cccc(OC[C@H](O)CN3CCN(c4ccccc4)CC3)c2)c2sccc21", "note": "[Example 100]", "inhibition at 1 µM": 90},
      {"smiles": "Cn1nc(-c2cccc(OC[C@H](O)CN3CCN(c4ncccn4)CC3)c2)c2sccc21", "note": "[Example 101]", "inhibition at 1 µM": 89},
      {"smiles": "Cn1nc(-c2cccc(OC[C@H](O)CN3CCC(C(=O)c4ccc(F)cc4)CC3)c2)c2sccc21", "note": "[Example 102]", "inhibition at 1 µM": 97},
      {"smiles": "Cn1nc(-c2cccc(OC[C@H](O)CN3CCC(n4c(=O)[nH]c5ccccc54)CC3)c2)c2sccc21", "note": "[Example 103]", "inhibition at 1 µM": 91}
    ]},
    {"target": "T1, human D4 receptor (D4.2 sub-type)", "assay": "D4 receptor binding assay (3H-spiperone displacement)", "settings": "3H-spiperone 0.25 nM, membranes of HEK 298 cells with human D4.2; Cheng-Prusoff from IC50; read-out: D4 RBA Ki", "method": "as §1, §2, §3, §4, §5, §6", "units": {"Ki": "nM"}, "values": [
      {"smiles": "CN(Cc1ccccc1)C[C@@H](O)COc1cccc(-c2noc3ccsc23)c1", "note": "[Compound 2]", "Ki": 106},
      {"smiles": "C[C@@](O)(CNCc1cccs1)COc1cccc(-c2noc3ccsc23)c1", "note": "[Compound 5 (freebase)]", "Ki": 26},
      {"smiles": "C[C@@](O)(CNCc1cccs1)COc1cccc(-c2noc3ccsc23)c1", "note": "[Compound 5 (maleate), (2R)-2-methyl-1-(3-thieno[2,3-d]isoxazol-3-yl-phenoxy)-3-[thienophen-2-ylmethyl)-amino-propan-2-ol maleate]", "Ki": 59.2},
      {"smiles": "O[C@@H](COc1cccc(-c2noc3ccsc23)c1)CN1CCN(c2ccc(Cl)cc2)CC1", "note": "[Compound 7, (2R)-1-[4-(4-chlorophenyl)piperazin-1-yl]-3-(3-thieno[2,3-d]isoxazol-3-yl-phenoxy)propan-2-ol hydrochloride]", "Ki": 29.6},
      {"smiles": "COc1ccccc1N1CCN(C[C@@H](O)COc2cccc(-c3noc4ccsc34)c2)CC1", "note": "[Compound 8]", "Ki": 1.7},
      {"smiles": "O[C@H](CNC1Cc2ccccc2C1)COc1cccc(-c2noc3ccsc23)c1", "note": "[Compound 91 (HCl), (2R)-1-(indan-2-ylamino)-3-(3-thieno[2,3-d]isoxazol-3-yl-phenoxy)-propan-2-ol]", "Ki": 17},
      {"smiles": "O[C@H](CNC1Cc2ccccc2C1)COc1cccc(-c2noc3ccsc23)c1", "note": "[Compound 91 (base), (2R)-1-(indan-2-ylamino)-3-(3-thieno[2,3-d]isoxazol-3-yl-phenoxy)-propan-2-ol]", "Ki": 13},
      {"smiles": "O[C@H](CNCc1cccc2ccccc12)COc1cccc(-c2noc3ccsc23)c1", "note": "[Example 10]", "Ki": 103},
      {"smiles": "C[C@@](O)(CNCc1ccco1)COc1cccc(-c2noc3ccsc23)c1", "note": "[Example 17]", "Ki": 45},
      {"smiles": "C[C@@](O)(CNCc1cccc2ccccc12)COc1cccc(-c2noc3ccsc23)c1", "note": "[Example 21]", "Ki": 55},
      {"smiles": "O[C@H](CNCc1ccco1)COc1cccc(-c2noc3ccsc23)c1", "note": "[Example 25]", "Ki": 57},
      {"smiles": "O[C@@H](COc1cccc(-c2noc3ccsc23)c1)CN1CCN(c2ccccc2C(F)(F)F)CC1", "note": "[Example 36]", "Ki": 84},
      {"smiles": "CO[C@H](CNCc1ccccc1)COc1cccc(-c2noc3ccsc23)c1", "note": "[Example 39]", "Ki": 26},
      {"smiles": "O[C@H](CNCc1cccs1)COc1ccc(-c2noc3ccsc23)cc1", "note": "[Example 43]", "Ki": 171},
      {"smiles": "COc1ccccc1N1CCN(C[C@@H](O)COc2ccc(-c3noc4ccsc34)cc2)CC1", "note": "[Example 45]", "Ki": 80},
      {"smiles": "CN(Cc1ccccc1)C[C@](C)(O)COc1cccc(-c2noc3ccsc23)c1", "note": "[Example 66]", "Ki": 90},
      {"smiles": "COc1ccccc1N1CCN(C[C@](C)(O)COc2cccc(-c3noc4ccsc34)c2)CC1", "note": "[Example 67]", "Ki": 19},
      {"smiles": "C[C@@](O)(COc1cccc(-c2noc3ccsc23)c1)CN1CCN(c2ccccc2C#N)CC1", "note": "[Example 68]", "Ki": 29},
      {"smiles": "O[C@@H](COc1cccc(-c2noc3ccsc23)c1)CN1C2CCC1CC(c1noc3ccccc13)C2", "note": "(some centres unmarked) [Example 75]", "Ki": 57},
      {"smiles": "O[C@@H](COc1cccc(-c2noc3ccsc23)c1)CN1CCN(c2nsc3ccccc23)CC1", "note": "[Example 76]", "Ki": 6},
      {"smiles": "O[C@H](CNC1CCc2ccccc21)COc1cccc(-c2noc3ccsc23)c1", "note": "(some centres unmarked) [Example 93]", "Ki": 16}
    ]}
  ]
}
